Measurements taken from patent US20080070860A1, “Adenosine Analogs Useful as Anti-Bacterial and Anti Protozoan Agents” (UTI LIMITED PARTNERSHIP, priority 2005, published 2008).

target: adenosine kinase (Homo sapiens, UniProt P55263); experiment: not given; settings: Kowaluk et al. 1998; cited from earlier work
Sequence (P55263 whole entry, species assumed): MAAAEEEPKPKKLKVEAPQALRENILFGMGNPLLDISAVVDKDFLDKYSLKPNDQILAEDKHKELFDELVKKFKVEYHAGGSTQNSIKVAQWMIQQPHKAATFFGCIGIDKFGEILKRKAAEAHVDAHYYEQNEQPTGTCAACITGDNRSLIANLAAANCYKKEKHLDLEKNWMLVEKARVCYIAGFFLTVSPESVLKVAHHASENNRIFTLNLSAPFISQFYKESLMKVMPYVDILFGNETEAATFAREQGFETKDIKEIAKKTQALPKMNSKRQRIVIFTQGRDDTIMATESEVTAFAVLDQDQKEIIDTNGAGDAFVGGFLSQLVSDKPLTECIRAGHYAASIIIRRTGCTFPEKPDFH

For `NC[C@H]1O[C@@H](n2cnc3c(N)ncnc32)[C@H](O)[C@@H]1O` [5′-deoxy-5′-amino-adenosine], the “inhibition of adenosine kinase” value is given as “potent inhibitor”.

target: T1, adenosine phosphorylase (Escherichia coli, UniProt P0ABP8); experiment: Adenosine phosphorylase assay (cleavage of nucleoside analog to base, E. coli cell free lysate, HPLC); format: biochemical, Escherichia coli DH5alpha; settings: 100 μM nucleoside analog, 20 min, 50 mM phosphate pH 7.4
T1 construct: assayed using the cell free lysate of E. coli as enzyme source; endogenous in cells; host or cells: Escherichia coli DH5alpha (cell-free lysate, 10,000 x g supernatant)
T1 sequence (P0ABP8 2-239): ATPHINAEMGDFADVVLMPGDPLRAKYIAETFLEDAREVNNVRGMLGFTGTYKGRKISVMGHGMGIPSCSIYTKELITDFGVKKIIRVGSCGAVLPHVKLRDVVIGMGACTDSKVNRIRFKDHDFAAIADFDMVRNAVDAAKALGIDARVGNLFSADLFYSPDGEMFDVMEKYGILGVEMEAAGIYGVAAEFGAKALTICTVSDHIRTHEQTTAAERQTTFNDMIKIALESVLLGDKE
Experimental: Escherichia coli DH5alpha cells were used as the source of adenosine phosphorylase to test the compounds of the present invention. E. coli DH5 alpha cells were harvested in log phase and collected by centrifugation. Cells were lysed by sonication, centrifuged at 10,000×g for 30 min and the supernatant was recovered for assay or storage at −60° C.
Adenosine phosphorylase activity was assayed using the cell free lysate of E. coli as enzyme source for catalysis of the cleavage of nucleoside analogs to their corresponding base analogs in the presence of 50 mM phosphate at pH 7.4. Reaction products were subjected to separation by reverse phase high performance liquid chromatography (HPLC) equipped with continuous scanning diode array detector as described below. Substrates and products were identified by retention time and UV spectra of their peaks.
Samples for HPLC were prepared post reaction by deproteination with 10% v/v of 50% TCA. Following centrifugation at 10,000 g for 5 min the supernatant was recovered for neutralization. A minimal amount of bromophenol blue was added and the sample was titrated with alamine-freon. Following a further centrifugation at 10,000 g for 5 min, the neutralized sample may be stored at −60° C.
Nucleosides and bases in a 10 μl sample were separated on an HPLC equipped with a scanning UV detector from 220 to 320 nm at 5 nm intervals, utilizing a reverse phase Waters Symmetry C18, 4.6×150 mm, 5 um column in tandem with a Waters guard column.
Compounds were identified by retention time and UV spectra at peak height as collected during separation.
The relative rate of conversion of 100 μM nucleoside analog to the corresponding base in 20 min (measured as the % of analog converted) was determined for the following compounds: 5′-deoxyadenosine, 41%; 2-chloroadenosine, 31%; 2-chloro-5′-deoxyadenosine, 8%; 2-fluoro-5′-deoxyadenosine, >80%; 6-thiopurine-5′-deoxyriboside, 61%; 2-amino-5′-deoxyadenosine, 7%.

Point of comparison: `Nc1nc(Cl)nc2c1ncn2[C@@H]1O[C@H](CO)[C@@H](O)[C@H]1O` [2-chloroadenosine, reference compound], “relative rate of conversion of nucleoside analog to the corresponding base (% of analog converted)” value 31%. Against it:
- C[C@H]1O[C@@H](n2cnc3c(N)nc(N)nc32)[C@H](O)[C@@H]1O [2-amino-5′-deoxyadenosine] — lower, 7%
- C[C@H]1O[C@@H](n2cnc3c(N)nc(Cl)nc32)[C@H](O)[C@@H]1O [2-chloro-5′-deoxyadenosine] — lower, 8%
- C[C@H]1O[C@@H](n2cnc3c(N)ncnc32)[C@H](O)[C@@H]1O [5′-deoxyadenosine] — higher, 41%
- C[C@H]1O[C@@H](n2cnc3c(S)ncnc32)[C@H](O)[C@@H]1O [6-thiopurine-5′-deoxyriboside, 6-mercaptopurine-5′-deoxy-β-D-riboside] — higher, 61%

For `C[C@H]1O[C@@H](n2cnc3c(N)nc(F)nc32)[C@H](O)[C@@H]1O` [2-fluoro-5′-deoxyadenosine], the “relative rate of conversion of nucleoside analog to the corresponding base (% of analog converted)” value was > 80%.

test system: not given; experiment: not given; settings: not given

First: COC[C@H]1O[C@@H](n2cnc3c(N)nc(Cl)nc32)[C@H](O)[C@@H]1O
Second: COC[C@H]1O[C@@H](n2cnc3c(N)nc(F)nc32)[C@H](O)[C@@H]1O
The melting point of the first is lower: 92 to 94 °C for the first, 231 to 233 °C for the second.

First: C[C@H]1O[C@@H](n2cnc3c(N)nc(N)nc32)[C@H](O)[C@@H]1O [2-amino-5′-deoxyadenosine]
Second: C[C@H]1O[C@@H](n2cnc3c(N)nc(F)nc32)[C@H](O)[C@@H]1O [2-fluoro-5′-deoxyadenosine]
The melting point of the first is lower: 135 to 138 °C for the first, 244 to 245 °C for the second.

target: T2, adenosine deaminase (Homo sapiens, UniProt P00813); experiment: not given; settings: cited from earlier work
T2 sequence (P00813 1-363): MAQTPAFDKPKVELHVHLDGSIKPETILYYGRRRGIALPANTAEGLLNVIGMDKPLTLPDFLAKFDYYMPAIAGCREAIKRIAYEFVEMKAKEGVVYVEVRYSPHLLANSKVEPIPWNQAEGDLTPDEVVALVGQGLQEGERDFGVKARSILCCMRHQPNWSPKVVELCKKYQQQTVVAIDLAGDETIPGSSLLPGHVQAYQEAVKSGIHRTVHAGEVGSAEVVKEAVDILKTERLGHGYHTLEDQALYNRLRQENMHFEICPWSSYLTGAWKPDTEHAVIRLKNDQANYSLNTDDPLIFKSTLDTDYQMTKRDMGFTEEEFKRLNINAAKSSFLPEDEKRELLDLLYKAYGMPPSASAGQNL

In the case of `Cc1ncnc2nc[nH]c12` [6-methylpurine], the “susceptibility to adenosine deaminase” value is listed as “quite refractory”.
